Reference: ChEMBL document CHEMBL1201862, “PubChem BioAssay data set” (2004)
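The compound was tested at five concentrations on cells cultured in 96-well plates, with a 48-hour exposure period. GI50 = concentration required for 50% inhibition of growth.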 Activity calls are given as the source filed them. Rule as the data show it: active = GI50 up to about 1.1 µM and inactive = higher.

Legend:
Assay in all cases: inhibition of tumour cell growth, NCI panel, 48 h
MDA-MB-435 = system: MDA-MB-435
MOLT-4 = system: MOLT-4
UO-31 = system: UO-31
TK-10 = system: TK-10
HCT-116 = system: HCT-116
KM-20L2 = system: KM-20L2
KM12 = system: KM12
NCI-H522 = system: NCI-H522
HT-29 = system: HT-29
SNB-19 = system: SNB-19
Malme-3M = system: Malme-3M
CCRF-CEM = system: CCRF-CEM
NCI-H226 = system: NCI-H226
COLO 205 = system: COLO 205
CAKI-1 = system: CAKI-1
MDA-N = system: MDA-N
SK-OV-3 = system: SK-OV-3
HL-60 = system: HL-60
DMS-114 = system: DMS-114
SK-MEL-2 = system: SK-MEL-2
NCI-H23 = system: NCI-H23
OVCAR-5 = system: OVCAR-5
RXF 393 = system: RXF 393
SNB-75 = system: SNB-75
SR = system: SR
U-251 = system: U-251
A549 = system: A549
M14 = system: M14
HCC 2998 = system: HCC 2998
OVCAR-4 = system: OVCAR-4
SN12C = system: SN12C
IGROV-1 = system: IGROV-1
LXFL 529 = system: LXFL 529
K562 = system: K562
SK-MEL-28 = system: SK-MEL-28
HCT-15 = system: HCT-15
UACC-62 = system: UACC-62
ACHN = system: ACHN
SW-620 = system: SW-620
OVCAR-3 = system: OVCAR-3
LOX IMVI = system: LOX IMVI
SNB-78 = system: SNB-78
HOP-62 = system: HOP-62
786-0 = system: 786-0
SK-MEL-5 = system: SK-MEL-5
SF-268 = system: SF-268
HOP-92 = system: HOP-92
SF-539 = system: SF-539
UACC-257 = system: UACC-257
A498 = system: A498
SF-295 = system: SF-295
NCI-H460 = system: NCI-H460
RPMI-8226 = system: RPMI-8226
M19-MEL = system: M19-MEL
Hs-578T = system: Hs-578T
PC-3 = system: PC-3
EKVX = system: EKVX
OVCAR-8 = system: OVCAR-8
MDA-MB-231 = system: MDA-MB-231
MCF7 = system: MCF7
DU-145 = system: DU-145
T47D = system: T47D
NCI/ADR-RES = system: NCI/ADR-RES

## O=C1C=C[C@@]23C[C@@H](NC4=C2C2=NCCc5c[nH]c(c52)C4=O)SC3=C1 [1-DEBROMODISCORHABDIN B]
MDA-MB-435
  GI50: 1.63 µM (inactive)
MOLT-4
  GI50: 1.99 µM (inactive)
UO-31
  GI50: 9.35 µM (inactive)
TK-10
  GI50: 14.6 µM (inactive)
HCT-116
  GI50: 1.75 µM (inactive)
KM-20L2
  GI50: 3.01 µM (inactive)
KM12
  GI50: 6.43 µM (inactive)
NCI-H522
  GI50: 1.69 µM (inactive)
HT-29
  GI50: 2.22 µM (inactive)
SNB-19
  GI50: 16.3 µM (inactive)
Malme-3M
  GI50: 1.25 µM (inactive)
CCRF-CEM
  GI50: 2.86 µM (inactive)
NCI-H226
  GI50: 14.6 µM (inactive)
COLO 205
  GI50: 1.55 µM (inactive)
CAKI-1
  GI50: 17.7 µM (inactive)
MDA-N
  GI50: 1.73 µM (inactive)
SK-OV-3
  GI50: 18.7 µM (inactive)
HL-60
  GI50: 1.67 µM (inactive)

## COC1CCCc2c(OC(C)=O)ccc(OC(C)=O)c21 (stereo not given)
DMS-114
  GI50: > 100 µM (inactive)
SK-MEL-2
  GI50: > 100 µM (inactive)
NCI-H23
  GI50: > 100 µM (inactive)
OVCAR-5
  GI50: > 100 µM (inactive)
RXF 393
  GI50: > 100 µM (inactive)
SNB-75
  GI50: > 100 µM (inactive)
SR
  GI50: > 100 µM (inactive)
MOLT-4
  GI50: > 100 µM (inactive)
UO-31
  GI50: > 100 µM (inactive)
U-251
  GI50: > 100 µM (inactive)
A549
  GI50: > 100 µM (inactive)
M14
  GI50: > 100 µM (inactive)
HCC 2998
  GI50: > 100 µM (inactive)
TK-10
  GI50: > 100 µM (inactive)
OVCAR-4
  GI50: 35 µM (inactive)
HCT-116
  GI50: > 100 µM (inactive)
SN12C
  GI50: > 100 µM (inactive)
IGROV-1
  GI50: > 100 µM (inactive)
LXFL 529
  GI50: > 100 µM (inactive)
K562
  GI50: > 100 µM (inactive)
KM-20L2
  GI50: > 100 µM (inactive)
KM12
  GI50: > 100 µM (inactive)
SK-MEL-28
  GI50: > 100 µM (inactive)
HCT-15
  GI50: > 100 µM
UACC-62
  GI50: > 100 µM (inactive)
ACHN
  GI50: > 100 µM (inactive)
SW-620
  GI50: > 100 µM (inactive)
OVCAR-3
  GI50: > 100 µM (inactive)
LOX IMVI
  GI50: > 100 µM (inactive)
SNB-19
  GI50: > 100 µM (inactive)
SNB-78
  GI50: 36 µM (inactive)
Malme-3M
  GI50: > 100 µM (inactive)
HOP-62
  GI50: > 100 µM (inactive)
786-0
  GI50: > 100 µM (inactive)
SK-MEL-5
  GI50: > 100 µM (inactive)
NCI-H226
  GI50: > 100 µM (inactive)
SF-268
  GI50: > 100 µM (inactive)
CAKI-1
  GI50: > 100 µM (inactive)
HOP-92
  GI50: 19.6 µM (inactive)
SK-OV-3
  GI50: > 100 µM (inactive)
HL-60
  GI50: > 100 µM (inactive)

## CCCCOP(=O)(OCCCC)/C(C#N)=C/c1ccco1
DMS-114
  GI50: 64.9 µM (inactive)
SK-MEL-2
  GI50: > 100 µM (inactive)
NCI-H23
  GI50: > 100 µM (inactive)
OVCAR-5
  GI50: > 100 µM (inactive)
RXF 393
  GI50: 82.8 µM (inactive)
SF-539
  GI50: > 100 µM (inactive)
SNB-75
  GI50: 27.2 µM (inactive)
UO-31
  GI50: 25.8 µM (inactive)
U-251
  GI50: > 100 µM (inactive)
M14
  GI50: > 100 µM (inactive)
OVCAR-4
  GI50: 91.6 µM (inactive)
HCT-116
  GI50: > 100 µM (inactive)
UACC-257
  GI50: 40.1 µM (inactive)
IGROV-1
  GI50: > 100 µM (inactive)
LXFL 529
  GI50: > 100 µM (inactive)
KM-20L2
  GI50: > 100 µM (inactive)
KM12
  GI50: 52.6 µM (inactive)
SK-MEL-28
  GI50: > 100 µM (inactive)
HT-29
  GI50: > 100 µM (inactive)
A498
  GI50: 77.8 µM (inactive)
SF-295
  GI50: 51.3 µM (inactive)
UACC-62
  GI50: > 100 µM (inactive)
ACHN
  GI50: 95.7 µM (inactive)
NCI-H460
  GI50: > 100 µM (inactive)
OVCAR-3
  GI50: 34.7 µM (inactive)
SNB-19
  GI50: 94.6 µM (inactive)
SNB-78
  GI50: 43.9 µM (inactive)
Malme-3M
  GI50: 94.2 µM (inactive)
HOP-62
  GI50: > 100 µM (inactive)
RPMI-8226
  GI50: 45.2 µM (inactive)
CCRF-CEM
  GI50: 12.4 µM (inactive)
M19-MEL
  GI50: > 100 µM (inactive)
COLO 205
  GI50: > 100 µM (inactive)
SF-268
  GI50: 45.2 µM (inactive)
HOP-92
  GI50: 45.3 µM (inactive)
SK-OV-3
  GI50: > 100 µM (inactive)
HL-60
  GI50: 22.8 µM (inactive)

## CSc1ncnc2c1CCN2
DMS-114
  GI50: > 100 µM (inactive)
SK-MEL-2
  GI50: 5.86 µM (inactive)
MDA-MB-435
  GI50: 2.21 µM (inactive)
NCI-H23
  GI50: 4.51 µM (inactive)
Hs-578T
  GI50: 4.51 µM (inactive)
OVCAR-5
  GI50: > 10 µM (inactive)
RXF 393
  GI50: > 10 µM (inactive)
SNB-75
  GI50: > 10 µM (inactive)
SR
  GI50: 1.78 µM (inactive)
MOLT-4
  GI50: > 10 µM (inactive)
UO-31
  GI50: 50.6 µM (inactive)
A549
  GI50: > 10 µM (inactive)
M14
  GI50: > 10 µM (inactive)
HCC 2998
  GI50: > 10 µM (inactive)
PC-3
  GI50: > 10 µM (inactive)
TK-10
  GI50: > 10 µM (inactive)
OVCAR-4
  GI50: > 10 µM (inactive)
HCT-116
  GI50: 6.07 µM (inactive)
SN12C
  GI50: > 100 µM (inactive)
EKVX
  GI50: > 10 µM (inactive)
OVCAR-8
  GI50: > 10 µM (inactive)
UACC-257
  GI50: 3.83 µM (inactive)
MDA-MB-231
  GI50: > 10 µM (inactive)
IGROV-1
  GI50: > 10 µM (inactive)
LXFL 529
  GI50: > 100 µM (inactive)
K562
  GI50: 4.93 µM (inactive)
KM12
  GI50: 5.35 µM (inactive)
SK-MEL-28
  GI50: > 10 µM (inactive)
NCI-H522
  GI50: 2.73 µM (inactive)
HT-29
  GI50: 7.96 µM (inactive)
HCT-15
  GI50: > 100 µM
SF-295
  GI50: 6.81 µM (inactive)
UACC-62
  GI50: 3.81 µM (inactive)
ACHN
  GI50: > 10 µM (inactive)
NCI-H460
  GI50: 5.37 µM (inactive)
SW-620
  GI50: 7.96 µM (inactive)
OVCAR-3
  GI50: 2.87 µM (inactive)
LOX IMVI
  GI50: 6.34 µM (inactive)
SNB-19
  GI50: > 10 µM (inactive)
MCF7
  GI50: 6.34 µM (inactive)
SNB-78
  GI50: > 100 µM (inactive)
Malme-3M
  GI50: 6.62 µM (inactive)
HOP-62
  GI50: > 100 µM (inactive)
RPMI-8226
  GI50: > 10 µM (inactive)
786-0
  GI50: > 10 µM (inactive)
DU-145
  GI50: > 10 µM (inactive)
T47D
  GI50: > 10 µM (inactive)
SK-MEL-5
  GI50: 2.92 µM (inactive)
CCRF-CEM
  GI50: > 10 µM (inactive)
M19-MEL
  GI50: > 100 µM (inactive)
NCI-H226
  GI50: > 10 µM (inactive)
COLO 205
  GI50: 8.85 µM (inactive)
SF-268
  GI50: > 10 µM (inactive)
CAKI-1
  GI50: > 10 µM (inactive)
NCI/ADR-RES
  GI50: > 10 µM (inactive)
HOP-92
  GI50: 3.96 µM (inactive)
MDA-N
  GI50: 3.4 µM (inactive)
SK-OV-3
  GI50: > 10 µM (inactive)
HL-60
  GI50: 4.29 µM (inactive)
